We go through 30 compounds from patent US10538491B2, “4,5-substituted picolinamide and picolinonitrile metabotropic glutamate receptor 2 negative allosteric modulators” (Vanderbilt University, priority 2015, dated 2020).

The test has as its target rat mGlu2 (Rattus norvegicus (Rat), UniProt P31421). Kind of test: mGlu2 Ca2+ flux assay. The format is cell-based. The note with it: for IC50: Gα15 HEK293 cells stably expressing rat mGlu2, glutamate EC80, >10,000 = no plateau, >30,000 = no measurable activity; for remaining activity at 30 µM: amplitude of response in the presence of 30 μM test compound as percentage of maximal response to glutamate, read-out: rat mGlu2 Glu max; for NAM designation: concentration-dependent decrease in the glutamate EC80 response. The procedure: Gα15 HEK293 cells stably expressing rat mGlu2 were plated in black-walled, clear-bottomed, poly-D-lysine coated 384-well plates in 20 μL of assay medium (DMEM containing 10% dialyzed FBS, 20 mM HEPES, and 1 mM sodium pyruvate) at a density of 12K cells/well. The cells were grown overnight at 37° C. in the presence of 5% CO2. The next day, medium was removed and the cells incubated with 20 μL of 2.3 μM Fluo-4, AM prepared as a 2.3 mM stock in DMSO and mixed in a 1:1 ratio with 10% (w/v) pluronic acid F-127 and diluted in assay buffer (Hank's balanced salt solution, 20 mM HEPES, and 2.5 mM probenecid) for 45 minutes at 37° C. Dye was removed, 20 μL of assay buffer was added, and the plate was incubated for 5 minutes at room temperature.
Ca^2+ flux was measured using the Functional Drug Screening System (FDSS7000, Hamamatsu, Japan). After establishment of a fluorescence baseline for about 3 seconds, the compounds of the present invention were added to the cells, and the response in cells was measured. 2.3 minutes later an EC20 concentration of the mGlu2 receptor agonist glutamate was added to the cells, and the response of the cells was measured for 1.9 minutes; an EC80 concentration of agonist was added and readings taken for an additional 1.7 minutes. All test compounds were dissolved and diluted to a concentration of 10 mM in 100% DMSO. Compounds were then serially diluted 1:3 in DMSO into 10 point concentration response curves, transferred to daughter plates, and further diluted into assay buffer to a 2× stock. Calcium fluorescence measures were recorded as fold over basal fluorescence; raw data was then normalized to the maximal response to glutamate. Antagonism of the agonist response of the mGlu2 receptor in the present invention was observed as a decrease in response to nearly maximal concentrations of glutamate in the presence of compound compared to the response to glutamate in the absence of compound.
The raw data file containing all time points was used as the data source in the analysis template. This was saved by the FDSS as a tab-delimited text file. Data were normalized using a static ratio function (F/F0) for each measurement of the total 360 values per well divided by each well's initial value. Data were then reduced to peak amplitudes (Max−Initial Min) using a time range that starts approximately 3 seconds prior to the glutamate EC80 addition and continues for approximately 90 seconds. This is sufficient time to capture the peak amplitude of the cellular calcium response. Individual amplitudes were expressed as % ECMax by multiplying each amplitude by 100 and then dividing the product by the mean of the amplitudes derived from the glutamate ECMax-treated wells. IC50 values for test compounds were generated by fitting the normalized values versus the log of the test compound concentration (in mol/L) using a 4 parameter logistic equation where none of the parameters were fixed. Each of the three values collected at each concentration of test compound were weighted evenly.
For NAMs, potency (IC50) and maximum response (% Glu Max), i.e. the amplitude of response in the presence of 30 μM test compound as a percentage of the maximal response to glutamate, are reported. […] Compounds with no measurable activity are designated as “>30,000 nM” since the top concentration of compound tested in the assay is 30 μM.
For orientation: Calcium assays in cells follow changes in intracellular calcium, usually with a dye or a luminescent sensor.

Sequence of rat mGlu2 (P31421 19-872): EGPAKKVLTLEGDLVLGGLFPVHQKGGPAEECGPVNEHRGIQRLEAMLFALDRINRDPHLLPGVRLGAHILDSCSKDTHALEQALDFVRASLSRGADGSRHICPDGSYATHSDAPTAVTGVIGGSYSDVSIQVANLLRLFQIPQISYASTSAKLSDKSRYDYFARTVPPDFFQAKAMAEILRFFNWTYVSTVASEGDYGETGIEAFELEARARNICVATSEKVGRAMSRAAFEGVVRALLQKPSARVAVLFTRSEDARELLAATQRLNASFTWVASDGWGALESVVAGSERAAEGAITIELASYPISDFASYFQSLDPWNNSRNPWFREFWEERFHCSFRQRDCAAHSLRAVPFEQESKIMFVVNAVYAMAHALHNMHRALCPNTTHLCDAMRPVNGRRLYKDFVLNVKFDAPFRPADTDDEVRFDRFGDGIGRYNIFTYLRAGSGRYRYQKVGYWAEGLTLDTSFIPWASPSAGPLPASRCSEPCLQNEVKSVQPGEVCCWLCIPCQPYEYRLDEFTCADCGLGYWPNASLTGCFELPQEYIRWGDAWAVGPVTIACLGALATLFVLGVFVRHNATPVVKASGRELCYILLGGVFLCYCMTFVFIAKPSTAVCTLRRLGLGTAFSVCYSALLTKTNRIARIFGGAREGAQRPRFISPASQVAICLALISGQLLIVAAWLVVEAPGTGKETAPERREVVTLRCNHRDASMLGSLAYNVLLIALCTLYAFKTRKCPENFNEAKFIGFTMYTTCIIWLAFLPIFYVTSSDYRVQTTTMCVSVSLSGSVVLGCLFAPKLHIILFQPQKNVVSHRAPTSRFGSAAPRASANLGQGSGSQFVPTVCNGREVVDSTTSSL

Consider `N#Cc1cc(-c2ccc(F)cc2)c(NCC2CCOCC2)cn1` [Compound 1, 4-(4-fluorophenyl)-5-(((tetrahydro-2H-pyran-4-yl)methyl)amino)picolinonitrile], for which the midpoint of inhibition, the IC50, lay at 6.85 µM and the remaining activity at 30 µM came to 5.12%.
The corresponding values for `N#Cc1cc(-c2ccc(F)cc2)c(NCCN2CCOCC2)cn1` [Compound 2, 4-(4-fluorophenyl)-5-((2-morpholinoethyl)amino)picolinonitrile] are more than 10 µM and 47.5%.
The corresponding values for `CN(CCN1CCOCC1)c1cnc(C#N)cc1-c1ccc(F)cc1` [Compound 3, 4-(4-fluorophenyl)-5-(methyl(2-morpholinoethyl)amino)picolinonitrile] are more than 10 µM and 52.4%.
The corresponding values for `CC(CN1CCOCC1)Nc1cnc(C#N)cc1-c1ccc(F)cc1` (stereo not shown) [Compound 4, 4-(4-fluorophenyl)-5-((1-morpholinopropan-2-yl)amino)picolinonitrile] are more than 10 µM and 46.6%.
Turning to `CC(CNc1cnc(C#N)cc1-c1ccc(F)cc1)N1CCOCC1` (stereo not shown) [Compound 5, 4-(4-fluorophenyl)-5-((2-morpholinopropyl)amino)picolinonitrile], the IC50 was more than 10 µM and the remaining activity at 30 µM was 36.2%.
As for `N#Cc1cc(-c2ccc(F)cc2)c(NCCCN2CCOCC2)cn1` [Compound 6, 4-(4-fluorophenyl)-5-((3-morpholinopropyl)amino)picolinonitrile], the IC50 was more than 10 µM and the remaining activity at 30 µM amounted to 49.2%.
The compound `N#Cc1cc(-c2ccc(F)cc2)c(OCc2ccc(Cl)nc2)cn1` [Compound 7, 5-((6-Chloropyridin-3-yl)methoxy)-4-(4-fluorophenyl)picolinonitrile] yielded an IC50 of more than 30 µM.
Take `NC(=O)c1cc(-c2ccc(F)cc2)c(OCc2ccc(Cl)nc2)cn1` [Compound 8, 5-((6-chloropyridin-3-yl)methoxy)-4-(4-fluorophenyl)picolinamide]: half-maximal inhibition (IC50) was put at 0.429 µM and the remaining activity at 30 µM amounted to 2%.
For `N#Cc1cc(-c2ccc(F)cc2)c(OCC2CCOCC2)cn1` [Compound 9, 4-(4-fluorophenyl)-5-((tetrahydro-2H-pyran-4-yl)methoxy)picolinonitrile], the IC50 is more than 30 µM.
Turning to `N#Cc1cc(-c2ccc(F)cc2)c(OCc2cccnc2)cn1` [Compound 10, 4-(4-fluorophenyl)-5-(pyridin-3-ylmethoxy)picolinonitrile], the IC50 is more than 10 µM and the remaining activity at 30 µM amounted to 37%.
The corresponding values for `N#Cc1cccc(COc2cnc(C#N)cc2-c2ccc(F)cc2)c1` [Compound 11, 5-((3-cyanobenzyl)oxy)-4-(4-fluorophenyl)picolinonitrile] are 7.11 µM and 29.9%.
The compound `N#Cc1cc(-c2ccc(F)cc2)c(OCc2cc(F)cc(F)c2)cn1` [Compound 12, 5-((3,5-difluorobenzyl)oxy)-4-(4-fluorophenyl)picolinonitrile] returned an IC50 of more than 30 µM.
As for `N#Cc1cc(-c2ccc(F)cc2)c(OCc2cncc(Cl)c2)cn1` [Compound 13, 5-((5-chloropyridin-3-yl)methoxy)-4-(4-fluorophenyl)picolinonitrile], the half-maximal inhibitory concentration (IC50) was more than 30 µM.
In turn, `Cc1ccc(COc2cnc(C#N)cc2-c2ccc(F)cc2)cn1` [Compound 14, 4-(4-fluorophenyl)-5-((6-methylpyridin-3-yl)methoxy)picolinonitrile] displayed an IC50 of more than 30 µM.
The same measure, in the same setting: in the case of `COc1ccc(COc2cnc(C#N)cc2-c2ccc(F)cc2)cn1` [Compound 15, 4-(4-fluorophenyl)-5-((6-methoxypyridin-3-yl)methoxy)picolinonitrile] it was more than 30 µM; in that of `CC(Oc1cnc(C#N)cc1-c1ccc(F)cc1)c1cccnc1` (stereo not shown) [Compound 16, 4-(4-fluorophenyl)-5-(1-(pyridin-3-yl)ethoxy)picolinonitrile], more than 30 µM.
Regarding `N#Cc1cc(-c2ccc(F)cc2)c(OCc2ccncc2)cn1` [Compound 17, 4-(4-fluorophenyl)-5-(pyridin-4-ylmethoxy)picolinonitrile], the IC50 stood at 1.58 µM, the remaining activity at 30 µM is 62% and the NAM designation entry is recorded as “(Partial NAM)”.
The corresponding values for `Cc1cc(COc2cnc(C#N)cc2-c2ccc(F)cc2)ccn1` [Compound 18, 4-(4-fluorophenyl)-5-((2-methylpyridin-4-yl)methoxy)picolinonitrile] are 2.69 µM, 47.5% and “(Partial NAM)”.
In the case of `CC(Oc1cnc(C#N)cc1-c1ccc(F)cc1)c1ccncc1` (stereo not shown) [Compound 19, 4-(4-fluorophenyl)-5-(1-(pyridin-4-yl)ethoxy)picolinonitrile], the IC50 is more than 10 µM and the remaining activity at 30 µM is 27.1%.
In the case of `N#Cc1cc(-c2ccc(F)cc2)c(OCc2ccnc(C(F)(F)F)c2)cn1` [Compound 20, 4-(4-fluorophenyl)-5-((2-(trifluoromethyl)pyridin-4-yl)methoxy)picolinonitrile], the concentration for half-maximal inhibition (IC50) is more than 10 µM and the remaining activity at 30 µM was determined as 37.9%.
Take `N#Cc1cc(-c2ccc(F)cc2)c(OCc2ccc3nccn3c2)cn1` [Compound 21, 4-(4-fluorophenyl)-5-(imidazo[1,2-a]pyridin-6-ylmethoxy)picolinonitrile]: the IC50 was 3.49 µM and the remaining activity at 30 µM worked out at 16.1%.
Consider `Cn1ccc(COc2cnc(C#N)cc2-c2ccc(F)cc2)n1` [Compound 22, 4-(4-fluorophenyl)-5-((1-methyl-1H-pyrazol-3-yl)methoxy)picolinonitrile], for which the IC50 is more than 10 µM and the remaining activity at 30 µM worked out at 11.1%.
`N#Cc1cc(-c2ccc(F)cc2)c(OCCc2cccnc2)cn1` [Compound 23, 4-(4-fluorophenyl)-5-(2-(pyridin-3-yl)ethoxy)picolinonitrile] came in with an IC50 of more than 30 µM.
As to `N#Cc1cc(-c2ccc(F)cc2)c(OCCN2CCOCC2)cn1` [Compound 24, 4-(4-fluorophenyl)-5-(2-morpholinoethoxy)picolinonitrile], the IC50 is more than 30 µM.
Take `N#Cc1cc(-c2ccc(F)cc2)c(OCCOc2cccnc2)cn1` [Compound 25, 4-(4-fluorophenyl)-5-(2-(pyridin-3-yloxy)ethoxy)picolinonitrile]: the IC50 was more than 10 µM and the remaining activity at 30 µM was found to be 39%.
Regarding `N#Cc1cc(-c2ccc(F)cc2)c(OC2CCN(c3ccnc(C(F)(F)F)c3)CC2)cn1` [Compound 26, 4-(4-fluorophenyl)-5-((1-(2-(trifluoromethyl)pyridin-4-yl)piperidin-4-yl)oxy)picolinonitrile], the IC50 was more than 30 µM.
On the same count and under the same terms, next, `N#Cc1cc(-c2ccc(F)cc2)c(OC2CCN(c3ccnc(C(F)(F)F)c3)C2)cn1` (stereo not shown) [Compound 27, 4-(4-fluorophenyl)-5-((1-(2-(trifluoromethyl)pyridin-4-yl)pyrrolidin-3-yl)oxy)picolinonitrile]: more than 30 µM; `N#Cc1cc(-c2ccc(F)cc2)c(OC2CN(c3ccnc(C(F)(F)F)c3)C2)cn1` [Compound 28, 4-(4-fluorophenyl)-5-((1-(2-(trifluoromethyl)pyridin-4-yl)azetidin-3-yl)oxy)picolinonitrile]: more than 30 µM.
As for `N#Cc1cc(-c2ccc(F)cc2)c(OCCOCc2ccccc2)cn1` [Compound 29, 5-(2-(benzyloxy)ethoxy)-4-(4-fluorophenyl)picolinonitrile], the IC50 was 4.25 µM, the remaining activity at 30 µM worked out at 65.2% and the NAM designation result is recorded as “(Partial NAM)”.
The corresponding values for `NC(=O)c1cc(-c2ccc(F)cc2)c(OCc2cc(F)cc(F)c2)cn1` [Compound 30, 5-((3,5-difluorobenzyl)oxy)-4-(4-fluorophenyl)picolinamide] are 0.401 µM, 18.7% and “(Partial NAM)”.

As a reminder, the IC50 is the concentration needed to halve the response being measured. Read a low IC50 as higher potency.
